{
  "source": "patent US4464385A",
  "about": "“Treatment of diabetic complications with hydantoins” (Alcon Laboratories, Inc., priority 1982, dated 1984)",
  "system": "cataracts in rats",
  "assay": "Prevention or retardation of cataracts in galactose-fed rats",
  "assay_type": "in vivo, rat",
  "conditions": "for suppression of the formation of nuclear cataracts: 30 days; for % of Total Eyes, + (vacuole) / % of Total Eyes, - (Normal) / % of Total Eyes, N (nuclear cataract) / % of Total Eyes, S (snowflake) / Number of Eyes Observed, + (vacuole) / Number of Eyes Observed, - (Normal) / Number of Eyes Observed, N (nuclear cataract) / Number of Eyes Observed, S (snowflake) / Number of Eyes Observed, ±: 30% galactose diet, A,C,E 0.0025%, B,D 0.01%",
  "outline": "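Rats given test compound mixed into diet (by % of total feed weight; 0.01% designed to supply 20 mg/kg/day) ad libitum for thirty days after a two-day chow acclimatization, twelve animals per treatment. Eyes examined by handheld ophthalmoscope and/or penlight and each eye graded.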",
  "note": "“Also recorded” adds a separate entry of the source.",
  "data": [
    {"substance": "dl-spiro-(6-methylthio-chroman-4,4'-imidazolidine)-2',5'-dione", "values": [
      {"measurement": "suppression of the formation of nuclear cataracts", "setting": "0.0025% in diet", "result": "greater than 80%"},
      {"measurement": "time of suppression, time to vacuole formation", "setting": "0.01% in diet", "result": 13.5, "unit": "days"},
      {"measurement": "time to snowflake / retardation of cataract, versus Sarges 0.0025% d-6-fluoro", "setting": "0.01% in diet", "result": "not significantly different from the Sarges 0.0025% d-6-fluoro control; also recorded: retard the progress of cataract formation slightly better than the Sarges control; also recorded: surpassed the positive control"},
      {"measurement": "time to vacuole formation, versus Sarges 0.0025% d-6-fluoro", "setting": "0.01% in diet", "result": "statistically lower (p<0.05) than the Sarges standard"},
      {"measurement": "suppression of the formation of nuclear cataracts", "setting": "0.01% in diet", "result": 100, "unit": "%"},
      {"measurement": "% of Total Eyes, + (vacuole)", "setting": "Study Day 2", "result": 0, "unit": "%"},
      {"measurement": "% of Total Eyes, - (Normal)", "setting": "Study Day 2", "result": 100.0, "unit": "%"},
      {"measurement": "% of Total Eyes, N (nuclear cataract)", "setting": "Study Day 2", "result": 0, "unit": "%"},
      {"measurement": "% of Total Eyes, S (snowflake)", "setting": "Study Day 2", "result": 0, "unit": "%"},
      {"measurement": "Number of Eyes Observed, + (vacuole)", "setting": "Study Day 2", "result": 0, "unit": "eyes"},
      {"measurement": "Number of Eyes Observed, - (Normal)", "setting": "Study Day 2", "result": 24, "unit": "eyes"},
      {"measurement": "Number of Eyes Observed, N (nuclear cataract)", "setting": "Study Day 2", "result": 0, "unit": "eyes"},
      {"measurement": "Number of Eyes Observed, S (snowflake)", "setting": "Study Day 2", "result": 0, "unit": "eyes"},
      {"measurement": "Number of Eyes Observed, ±", "setting": "Study Day 2", "result": 0, "unit": "eyes"},
      {"measurement": "% of Total Eyes, + (vacuole)", "setting": "Study Day 3", "result": 0, "unit": "%"},
      {"measurement": "% of Total Eyes, - (Normal)", "setting": "Study Day 3", "result": 100.0, "unit": "%"},
      {"measurement": "% of Total Eyes, N (nuclear cataract)", "setting": "Study Day 3", "result": 0, "unit": "%"},
      {"measurement": "% of Total Eyes, S (snowflake)", "setting": "Study Day 3", "result": 0, "unit": "%"},
      {"measurement": "Number of Eyes Observed, + (vacuole)", "setting": "Study Day 3", "result": 0, "unit": "eyes"},
      {"measurement": "Number of Eyes Observed, - (Normal)", "setting": "Study Day 3", "result": 24, "unit": "eyes"},
      {"measurement": "Number of Eyes Observed, N (nuclear cataract)", "setting": "Study Day 3", "result": 0, "unit": "eyes"},
      {"measurement": "Number of Eyes Observed, S (snowflake)", "setting": "Study Day 3", "result": 0, "unit": "eyes"},
      {"measurement": "Number of Eyes Observed, ±", "setting": "Study Day 3", "result": 0, "unit": "eyes"},
      {"measurement": "% of Total Eyes, + (vacuole)", "setting": "Study Day 4", "result": 0, "unit": "%"},
      {"measurement": "% of Total Eyes, - (Normal)", "setting": "Study Day 4", "result": 16.7, "unit": "%"},
      {"measurement": "% of Total Eyes, N (nuclear cataract)", "setting": "Study Day 4", "result": 0, "unit": "%"},
      {"measurement": "% of Total Eyes, S (snowflake)", "setting": "Study Day 4", "result": 0, "unit": "%"},
      {"measurement": "Number of Eyes Observed, + (vacuole)", "setting": "Study Day 4", "result": 0, "unit": "eyes"},
      {"measurement": "Number of Eyes Observed, - (Normal)", "setting": "Study Day 4", "result": 4, "unit": "eyes"},
      {"measurement": "Number of Eyes Observed, N (nuclear cataract)", "setting": "Study Day 4", "result": 0, "unit": "eyes"},
      {"measurement": "Number of Eyes Observed, S (snowflake)", "setting": "Study Day 4", "result": 0, "unit": "eyes"},
      {"measurement": "Number of Eyes Observed, ±", "setting": "Study Day 4", "result": 20, "unit": "eyes"},
      {"measurement": "% of Total Eyes, + (vacuole)", "setting": "Study Day 5", "result": 75.0, "unit": "%"},
      {"measurement": "% of Total Eyes, - (Normal)", "setting": "Study Day 5", "result": 0, "unit": "%"},
      {"measurement": "% of Total Eyes, N (nuclear cataract)", "setting": "Study Day 5", "result": 0, "unit": "%"},
      {"measurement": "% of Total Eyes, S (snowflake)", "setting": "Study Day 5", "result": 0, "unit": "%"},
      {"measurement": "Number of Eyes Observed, + (vacuole)", "setting": "Study Day 5", "result": 18, "unit": "eyes"},
      {"measurement": "Number of Eyes Observed, - (Normal)", "setting": "Study Day 5", "result": 0, "unit": "eyes"},
      {"measurement": "Number of Eyes Observed, N (nuclear cataract)", "setting": "Study Day 5", "result": 0, "unit": "eyes"},
      {"measurement": "Number of Eyes Observed, S (snowflake)", "setting": "Study Day 5", "result": 0, "unit": "eyes"},
      {"measurement": "Number of Eyes Observed, ±", "setting": "Study Day 5", "result": 6, "unit": "eyes"},
      {"measurement": "% of Total Eyes, + (vacuole)", "setting": "Study Day 6", "result": 83.3, "unit": "%"},
      {"measurement": "% of Total Eyes, - (Normal)", "setting": "Study Day 6", "result": 0, "unit": "%"},
      {"measurement": "% of Total Eyes, N (nuclear cataract)", "setting": "Study Day 6", "result": 0, "unit": "%"},
      {"measurement": "% of Total Eyes, S (snowflake)", "setting": "Study Day 6", "result": 0, "unit": "%"},
      {"measurement": "Number of Eyes Observed, + (vacuole)", "setting": "Study Day 6", "result": 20, "unit": "eyes"},
      {"measurement": "Number of Eyes Observed, - (Normal)", "setting": "Study Day 6", "result": 0, "unit": "eyes"},
      {"measurement": "Number of Eyes Observed, N (nuclear cataract)", "setting": "Study Day 6", "result": 0, "unit": "eyes"},
      {"measurement": "Number of Eyes Observed, S (snowflake)", "setting": "Study Day 6", "result": 0, "unit": "eyes"},
      {"measurement": "Number of Eyes Observed, ±", "setting": "Study Day 6", "result": 4, "unit": "eyes"},
      {"measurement": "% of Total Eyes, + (vacuole)", "setting": "Study Day 8", "result": 100.0, "unit": "%"},
      {"measurement": "% of Total Eyes, - (Normal)", "setting": "Study Day 8", "result": 0, "unit": "%"},
      {"measurement": "% of Total Eyes, N (nuclear cataract)", "setting": "Study Day 8", "result": 0, "unit": "%"},
      {"measurement": "% of Total Eyes, S (snowflake)", "setting": "Study Day 8", "result": 0, "unit": "%"},
      {"measurement": "Number of Eyes Observed, + (vacuole)", "setting": "Study Day 8", "result": 24, "unit": "eyes"},
      {"measurement": "Number of Eyes Observed, - (Normal)", "setting": "Study Day 8", "result": 0, "unit": "eyes"},
      {"measurement": "Number of Eyes Observed, N (nuclear cataract)", "setting": "Study Day 8", "result": 0, "unit": "eyes"},
      {"measurement": "Number of Eyes Observed, S (snowflake)", "setting": "Study Day 8", "result": 0, "unit": "eyes"},
      {"measurement": "Number of Eyes Observed, ±", "setting": "Study Day 8", "result": 0, "unit": "eyes"},
      {"measurement": "% of Total Eyes, + (vacuole)", "setting": "Study Day 10", "result": 79.2, "unit": "%"},
      {"measurement": "% of Total Eyes, - (Normal)", "setting": "Study Day 10", "result": 0, "unit": "%"},
      {"measurement": "% of Total Eyes, N (nuclear cataract)", "setting": "Study Day 10", "result": 0, "unit": "%"},
      {"measurement": "% of Total Eyes, S (snowflake)", "setting": "Study Day 10", "result": 20.8, "unit": "%"},
      {"measurement": "Number of Eyes Observed, + (vacuole)", "setting": "Study Day 10", "result": 19, "unit": "eyes"},
      {"measurement": "Number of Eyes Observed, - (Normal)", "setting": "Study Day 10", "result": 0, "unit": "eyes"},
      {"measurement": "Number of Eyes Observed, N (nuclear cataract)", "setting": "Study Day 10", "result": 0, "unit": "eyes"},
      {"measurement": "Number of Eyes Observed, S (snowflake)", "setting": "Study Day 10", "result": 5, "unit": "eyes"},
      {"measurement": "Number of Eyes Observed, ±", "setting": "Study Day 10", "result": 0, "unit": "eyes"},
      {"measurement": "% of Total Eyes, + (vacuole)", "setting": "Study Day 12", "result": 58.4, "unit": "%"},
      {"measurement": "% of Total Eyes, - (Normal)", "setting": "Study Day 12", "result": 0, "unit": "%"},
      {"measurement": "% of Total Eyes, N (nuclear cataract)", "setting": "Study Day 12", "result": 0, "unit": "%"},
      {"measurement": "% of Total Eyes, S (snowflake)", "setting": "Study Day 12", "result": 41.6, "unit": "%"},
      {"measurement": "Number of Eyes Observed, + (vacuole)", "setting": "Study Day 12", "result": 14, "unit": "eyes"},
      {"measurement": "Number of Eyes Observed, - (Normal)", "setting": "Study Day 12", "result": 0, "unit": "eyes"},
      {"measurement": "Number of Eyes Observed, N (nuclear cataract)", "setting": "Study Day 12", "result": 0, "unit": "eyes"},
      {"measurement": "Number of Eyes Observed, S (snowflake)", "setting": "Study Day 12", "result": 10, "unit": "eyes"},
      {"measurement": "Number of Eyes Observed, ±", "setting": "Study Day 12", "result": 0, "unit": "eyes"},
      {"measurement": "% of Total Eyes, + (vacuole)", "setting": "Study Day 14", "result": 41.6, "unit": "%"},
      {"measurement": "% of Total Eyes, - (Normal)", "setting": "Study Day 14", "result": 0, "unit": "%"},
      {"measurement": "% of Total Eyes, N (nuclear cataract)", "setting": "Study Day 14", "result": 0, "unit": "%"}
    ]}
  ]
}
